Test system: MMP13 expression in SW1353 chondrosarcoma cell line
Experiment: MMP13 assay: IL-1/OSM-driven MMP13 expression in SW1353 cells (MMP13 ELISA)
Type: cell-based
Conditions: Homo sapiens, IL-1β and OSM, 48 hr
Protocol: The protocol of the MMP13 ELISA is described in section 4.1, then testing of compounds on release of IL-1/OSM-driven MMP13 expression in SW1353 chondrosarcoma cell line is described in section 4.2.
A 384 well format ELISA for measurement of MMP13 was developed. Various primary antibodies were tested, as well as various ELISA protocols. The following protocol is developed and validated to measure MMP13 levels in supernatant of cell cultures in 384 well plates.
Black maxisorb 384 well plates (Nunc 460518) are coated with 35 μl of a buffered solution containing 1.5 μg/mL anti-MMP13 antibody MAB511 (R&D systems). The antibody is diluted in carbonate-bicarbonate coating buffer (1.59 g Na2CO3 (Sigma S-7795) and 2.93 g NaHCO3 (Sigma S-5761) in 1 L MilliQ water, adjusted to pH 9.6). After overnight incubation at 4° C., wells are washed twice with 100 μL PBST (80 g NaCl, 2 g KCl (Sigma), 11.5 g Na2HPO4.7H2O and 2 g KH2PO4 in 10 L milliQ water; pH 7.4+0.05% Tween-20 (Sigma)) and blocked with 100 μL/well blocking buffer (5% non fat dry milk in PBS). After overnight incubation at 4° C., wells are washed twice with 100 μL PBST. The PBST is removed and 35 μL of sample is transferred to the ELISA plates. After 4 hr incubation at RT, plates are washed twice with PBST and incubated for 1 hr at 37° C. with 35 μL/well 1.5 mM APMA solution (a 10 mM APMA stock solution is prepared one day before (35.18 mg APMA (Sigma A-9563) in 10 mL 0.1M NaOH (Merck 1.06469.1000) and stored at 4° C. Before use, the 10 mM APMA stock solution is diluted to 1.5 mM in 1×APMA buffer (10× APMA buffer: 500 mM Tris (Roche 708976), 50 mM CaCl2 (Sigma C-5080), […] ZnCl2 (Sigma Z-0173), 1.5 M NaCl (Calbiochem 567441), 0.5% Brij35 (Sigma 430 AG-6) and adjust to pH 7.0). After activation of MMP13 by APMA, plates are washed again two times with 100 μL PBST/well and 35 μL of substrate solution is added to each well. Substrate solution is prepared as follows: OmniMMP Fluorescent substrate (Biomol P-126) stock solution (2 mM in DMSO, stored at −20° C.) is diluted in 1× OmniMMP buffer (10× OmniMMP buffer: 500 mM Hepes (Sigma H4034), 100 mM CaCl2 (Sigma C5080), 0.5% Brij35 (Sigma 430 AG-6; adjusted to pH 7.0) to a final concentration of 0.01 mM. After an overnight incubation at 37° C., the active MMP13 in the sample has cleaved the substrate and released fluorescence. Readout is performed on the EnVision (Perkin Elmer) using 320 nm excitation/405 nm emission filters.
Human chondrosarcoma cell line SW1353 was acquired from ATCC and grown in DMEM supplemented with 10% heat-inactivated FBS and 1× penicillin/streptomycin (Invitrogen) in a humidified 5% CO2 incubator at 37° C. Aliquots of the cells were frozen and cryopreserved in liquid nitrogen. Starting from a cryopreserved aliquot, cells are further grown by sub-culturing at a 1/5-1/8 ratio twice a week by trypsinisation.
Starting from the compound master stocks (all at 10 mM concentration in 100% DMSO) a 3-fold serial dilution is made in 96-well plates in 100% DMSO. Then, plates are futher diluted 50-fold in M199 medium supplemented with 1% heat-inactivated FBS to obtain an intermediate work stock.
At day 1, SW1353 cells are seeded in 96-well plates (flat bottom, tissue culture treated, Greiner) at a density of 15000 cells/well in 120 μL growth medium. The next day, 15 μL compound out of the intermediate work stock is added. After an incubation period of 60 minutes, which allows the compounds to equilibrate and enter the cells, cells are stimulated with a mixture of IL-1β and OSM, added in a volume of 15 μL to obtain final concentrations of 1 ng/ml IL-1β and 25 ng/ml OSM. For that, stocks of IL-1 (10 μg/ml) and OSM (25 μg/ml) (both PeproTech) were diluted to 10 ng/ml and 250 ng/ml respectively, in M199 medium supplemented with 1% FBS. After incubation for 48 hr, the cell supernatant was harvested and an appropriate dilution was processed in the MMP13 ELISA as described above, delivering raw data (RFU: relative fluorescence units). […]

SMILES	IC50 [nM]
CC(C)N1C[C@@H]2C[C@H]1CN2c1cccc(Nc2ncc(-c3coc(C(N)=O)c3)n3ccnc23)c1 [Compound 25, 4-(8-(3-((1S,4S)-5-isopropyl-2,5-diazabicyclo[2.2.1]heptan-2-yl)phenylamino)imidazo[1,2-a]pyrazin-5-yl)furan-2-carboxamide]	> 1000
CC(C)N1C[C@@H]2C[C@H]1CN2c1cccc(Nc2ncc(-c3ccc4c(c3)CNC4=O)n3ncnc23)c1 [Compound 26, 5-(8-(3-((1S,4S)-5-isopropyl-2,5-diazabicyclo[2.2.1]heptan-2-yl)phenylamino)-[1,2,4]triazolo[1,5-a]pyrazin-5-yl)isoindolin-1-one]	> 1000

From patent US8012983B2, “Substituted triazolopyrazines useful for the treatment of degenerative and inflammatory diseases” (Galapagos NV, priority 2008, dated 2011)
